Results from paper PMC7211202 (Investigational New Drugs, 2019).

Test: Patient incidence of adverse events (CTCAE version 4.0)
Assay type: in vivo
Conditions: dose escalation
From the text: Each patient was monitored for 21 days for the occurrence of dose-limiting toxicities (DLTs), defined as febrile neutropenia, neutropenic infection, grade 4 neutropenia lasting >7 days, grade ≥ 3 thrombocytopenia lasting >7 days (solid tumors only), grade 3 thrombocytopenia with grade ≥ 2 bleeding (solid tumors only), grade 3 or 4 thrombocytopenia with grade > 1 bleeding (multiple myeloma only), grade 4 thrombocytopenia (solid tumors only), or grade 4 thrombocytopenia lasting >14 days (multiple myeloma only), or as grade ≥ 3 nausea, vomiting, or diarrhea after support; grade 3 fatigue lasting >7 days; any other grade ≥ 3 adverse event (AE); grade ≥ 3 kidney injury (multiple myeloma only), or treatment-related AEs not returning to grade ≤ 1 (solid tumors only) per Common Terminology Criteria for Adverse Events (CTCAE), version 4.0. The MTD was defined as the maximum dose, at which the probability of a DLT was ≤25% in Part 1A and ≤ 33% in Parts 1B and 1C. Treatment continued until disease progression, intolerable toxicity, or withdrawal of consent.
AEs were recorded for all enrolled patients.

## CC(C)[C@@H](CS(=O)(=O)C(C)C)N1C(=O)[C@@](C)(CC(=O)O)C[C@H](c2cccc(Cl)c2)[C@H]1c1ccc(Cl)cc1 [AMG 232]
30 mg (n = 3)
  Treatment-related serious AE: Dehydration (grade 2): 0 n (%)
  Treatment-related serious AE: Diarrhea: 0 n (%)
  Treatment-related serious AE: Diarrhea, Grade 2: 0 n (%)
  Treatment-related serious AE: Diarrhea, Grade 3: 0 n (%)
  Treatment-related serious AE: Febrile neutropenia (grade 3): 0 n (%)
  Treatment-related serious AE: Hematemesis (grade 3): 0 n (%)
  Treatment-related serious AE: Nausea (grade 3): 0 n (%)
  Treatment-related serious AE: Neutropenia (grade 4): 0 n (%)
  Treatment-related serious AE: Non-cardiac chest pain (grade 3): 0 n (%)
  Treatment-related serious AE: Thrombocytopenia (grade 4): 0 n (%)
  Treatment-related serious AE: Vomiting: 0 n (%)
  Treatment-related serious AE: Vomiting, Grade 2: 0 n (%)
  Treatment-related serious AE: Vomiting, Grade 3: 0 n (%)
60 mg (n = 4)
  Patients with any treatment-emergent AE: 4 (100) n (%)
  Patients with any treatment-emergent serious AE: 0 n (%)
  Patients with any treatment-related AE: 3 (75) n (%)
  Patients with any treatment-related AE, Grade 3: 0 n (%)
  Patients with any treatment-related AE, Grade 4: 0 n (%)
  Patients with any treatment-related AE, Grade 5: 0 n (%)
  Patients with any treatment-related serious AE: 0 n (%)
  Treatment-related AE: Abdominal pain: 0 n (%)
  Treatment-related AE: Anemia: 0 n (%)
  Treatment-related AE: Asthenia: 0 n (%)
  Treatment-related AE: Decrease appetite: 1 (25) n (%)
  Treatment-related AE: Diarrhea: 1 (25) n (%)
  Treatment-related AE: Dysgeusia: 0 n (%)
  Treatment-related AE: Fatigue: 1 (25) n (%)
  Treatment-related AE: Myalgia: 0 n (%)
  Treatment-related AE: Nausea: 3 (75) n (%)
  Treatment-related AE: Neutropenia: 0 n (%)
  Treatment-related AE: Thrombocytopenia: 0 n (%)
  Treatment-related AE: Upper abdominal pain: 0 n (%)
  Treatment-related AE: Vomiting: 0 n (%)
  Treatment-related serious AE: Abdominal pain (grade 2): 0 n (%)
  Treatment-related serious AE: Dehydration (grade 2): 0 n (%)
  Treatment-related serious AE: Diarrhea: 0 n (%)
  Treatment-related serious AE: Diarrhea, Grade 2: 0 n (%)
  Treatment-related serious AE: Diarrhea, Grade 3: 0 n (%)
  Treatment-related serious AE: Febrile neutropenia (grade 3): 0 n (%)
  Treatment-related serious AE: Hematemesis (grade 3): 0 n (%)
  Treatment-related serious AE: Nausea (grade 3): 0 n (%)
  Treatment-related serious AE: Neutropenia (grade 4): 0 n (%)
  Treatment-related serious AE: Non-cardiac chest pain (grade 3): 0 n (%)
  Treatment-related serious AE: Thrombocytopenia (grade 4): 0 n (%)
  Treatment-related serious AE: Vomiting: 0 n (%)
  Treatment-related serious AE: Vomiting, Grade 2: 0 n (%)
  Treatment-related serious AE: Vomiting, Grade 3: 0 n (%)
120 mg (n = 7)
  Patients with any treatment-emergent AE: 7 (100) n (%)
  Patients with any treatment-emergent serious AE: 3 (43) n (%)
  Patients with any treatment-related AE: 7 (100) n (%)
  Patients with any treatment-related AE, Grade 3: 1 (14) n (%)
  Patients with any treatment-related AE, Grade 4: 1 (14) n (%)
  Patients with any treatment-related AE, Grade 5: 0 n (%)
  Patients with any treatment-related serious AE: 0 n (%)
  Treatment-related AE: Abdominal pain: 0 n (%)
  Treatment-related AE: Anemia: 0 n (%)
  Treatment-related AE: Asthenia: 0 n (%)
  Treatment-related AE: Decrease appetite: 2 (29) n (%)
  Treatment-related AE: Diarrhea: 3 (43) n (%)
  Treatment-related AE: Dysgeusia: 0 n (%)
  Treatment-related AE: Fatigue: 3 (43) n (%)
  Treatment-related AE: Myalgia: 1 (14) n (%)
  Treatment-related AE: Nausea: 3 (43) n (%)
  Treatment-related AE: Neutropenia: 0 n (%)
  Treatment-related AE: Thrombocytopenia: 1 (14) n (%)
  Treatment-related AE: Upper abdominal pain: 1 (14) n (%)
  Treatment-related AE: Vomiting: 2 (29) n (%)
  Treatment-related serious AE: Abdominal pain (grade 2): 0 n (%)
  Treatment-related serious AE: Dehydration (grade 2): 0 n (%)
  Treatment-related serious AE: Diarrhea: 0 n (%)
  Treatment-related serious AE: Diarrhea, Grade 2: 0 n (%)
  Treatment-related serious AE: Diarrhea, Grade 3: 0 n (%)
  Treatment-related serious AE: Febrile neutropenia (grade 3): 0 n (%)
  Treatment-related serious AE: Hematemesis (grade 3): 0 n (%)
  Treatment-related serious AE: Nausea (grade 3): 0 n (%)
  Treatment-related serious AE: Neutropenia (grade 4): 0 n (%)
  Treatment-related serious AE: Non-cardiac chest pain (grade 3): 0 n (%)
  Treatment-related serious AE: Thrombocytopenia (grade 4): 0 n (%)
  Treatment-related serious AE: Vomiting: 0 n (%)
  Treatment-related serious AE: Vomiting, Grade 2: 0 n (%)
  Treatment-related serious AE: Vomiting, Grade 3: 0 n (%)
240 mg (n = 8)
  Patients with any treatment-emergent AE: 8 (100) n (%)
  Patients with any treatment-emergent serious AE: 4 (50) n (%)
  Patients with any treatment-related AE: 8 (100) n (%)
  Patients with any treatment-related AE, Grade 3: 3 (38) n (%)
  Patients with any treatment-related AE, Grade 4: 0 n (%)
  Patients with any treatment-related AE, Grade 5: 0 n (%)
  Patients with any treatment-related serious AE: 2 (25) n (%)
  Treatment-related AE: Abdominal pain: 2 (25) n (%)
  Treatment-related AE: Anemia: 1 (13) n (%)
  Treatment-related AE: Asthenia: 1 (13) n (%)
  Treatment-related AE: Decrease appetite: 2 (25) n (%)
  Treatment-related AE: Diarrhea: 6 (75) n (%)
  Treatment-related AE: Dysgeusia: 2 (25) n (%)
  Treatment-related AE: Fatigue: 4 (50) n (%)
  Treatment-related AE: Myalgia: 0 n (%)
  Treatment-related AE: Nausea: 5 (63) n (%)
  Treatment-related AE: Neutropenia: 0 n (%)
  Treatment-related AE: Thrombocytopenia: 1 (13) n (%)
  Treatment-related AE: Upper abdominal pain: 1 (13) n (%)
  Treatment-related AE: Vomiting: 5 (63) n (%)
  Treatment-related serious AE: Abdominal pain (grade 2): 1 (13) n (%)
  Treatment-related serious AE: Dehydration (grade 2): 0 n (%)
  Treatment-related serious AE: Diarrhea: 1 (13) n (%)
  Treatment-related serious AE: Diarrhea, Grade 2: 1 (13) n (%)
  Treatment-related serious AE: Diarrhea, Grade 3: 0 n (%)
  Treatment-related serious AE: Febrile neutropenia (grade 3): 0 n (%)
  Treatment-related serious AE: Hematemesis (grade 3): 0 n (%)
  Treatment-related serious AE: Nausea (grade 3): 1 (13) n (%)
  Treatment-related serious AE: Neutropenia (grade 4): 0 n (%)
  Treatment-related serious AE: Non-cardiac chest pain (grade 3): 1 (13) n (%)
  Treatment-related serious AE: Thrombocytopenia (grade 4): 0 n (%)
  Treatment-related serious AE: Vomiting: 1 (13) n (%)
  Treatment-related serious AE: Vomiting, Grade 2: 0 n (%)
  Treatment-related serious AE: Vomiting, Grade 3: 1 (13) n (%)
300 mg (n = 4)
  Patients with any treatment-emergent AE: 4 (100) n (%)
  Patients with any treatment-emergent serious AE: 2 (50) n (%)
  Patients with any treatment-related AE: 4 (100) n (%)
  Patients with any treatment-related AE, Grade 3: 3 (75) n (%)
  Patients with any treatment-related AE, Grade 4: 2 (50) n (%)
  Patients with any treatment-related AE, Grade 5: 0 n (%)
  Patients with any treatment-related serious AE: 2 (50) n (%)
  Treatment-related AE: Abdominal pain: 1 (25) n (%)
  Treatment-related AE: Anemia: 0 n (%)
  Treatment-related AE: Asthenia: 1 (25) n (%)
  Treatment-related AE: Decrease appetite: 1 (25) n (%)
  Treatment-related AE: Diarrhea: 4 (100) n (%)
  Treatment-related AE: Dysgeusia: 1 (25) n (%)
  Treatment-related AE: Fatigue: 2 (50) n (%)
  Treatment-related AE: Myalgia: 0 n (%)
  Treatment-related AE: Nausea: 1 (25) n (%)
  Treatment-related AE: Neutropenia: 2 (50) n (%)
  Treatment-related AE: Thrombocytopenia: 3 (75) n (%)
